Here are results for seven molecules from patent publication EP0304156A1, “Cyclohept b indolealkanoic acids” (MERCK FROSST CANADA INC., priority 1987, dated 1989).

In test [1] the test system is Guinea Pig Tracheal Chain. Put plainly: Estimation of pA2 values in guinea pig tracheal chain (contractile agonist U-44069). On the set-up: species or system guinea pigs. The following applies: for Kb: Cavia porcellus, 5 min, guinea pig tracheal chain, agonist U-44069. The text has this:
Estimation of pA₂ Values in Guinea Pig Tracheal Chain
Male albino Hartley strain guinea pigs (300-350 gm) were sacrificed by a blow to the head and exsanguinated. The trachea was removed, freed of extraneous tissue and sectioned into rings of 1-2 mm thickness. Five rings were tied together in series, ensuring that the tracheal muscle lay in the same vertical plane, and the cartilage of each ring then separated at a point directly opposite the muscle. The chains were suspended under 1 gm resting tension in modified Krebs solution (NaCl, 6.87; NaHCO₃, 2.1; dextrose, 2.1; KCl, 0.32; CaCl₂, 0.28; MgSO₄, 7H₂O, 0.11; KH₂PO₄, 0.16; gm/L: equilibrated with 5% CO₂ in O₂ for 1 hour) containing indomethacin (1.4 x 10-⁵M) to suppress endogenous protaglandin synthesis, Organ bath temperature was maintained at 37°C and 5% CO₂ in O₂ diffused continously. Isometric tension changes were recorded from a Gould-Statham (UTC 2) force displacement transducer connected to a Beckman Type R Dynograph. For assay purposes initial maximal contractions were elicited with a high concentration of the contractile agonist [U-44069, 9.11-dideoxy-9a,11a-epoxymethano PGF2a] and the tissue sub sequently washed at intervals until tension returned to baseline. Agonist dose response curves were obtained using a cumulative-dose schedule (4-8 doses) and the preparations then washed at regular intervals until baseline tension was recorded. After an appropriate interval (1-1.5 hrs) agonist dose response curves were repeated in the presence of antagonist drug concentrations. […] EC₅₀ values were obtained by regression analysis and used to calculate 'apparent' and Schild Plot pA₂ values by the method of Tallarida and Murray 1981.

Test [2] has as its system Human platelets. The experiment in a line: Inhibition of induced threshold aggregation of human platelets (agonist U44069). Type of test: cell-based. The settings on record: human platelet rich plasma, aggregating agent U44069; read-out: Inhibition of platelet aggregation (IC50 in mg/ml). As for the experimental part: Inhibition of Induced Threshold Aggregation of Human Platelets
Human platelet rich plasma (PRP) is prepared from venous blood of male volunteers who have taken no medication for ten days prior to test. Blood is transferred into plastic centrifuge tubes containing 3.8% Trisodium Citrate in 0.9% NaCl (in a ratio of blood to anticoagulant of 9:1), mixed by gentle inversion, and centrifuged at room temperature for ten minutes at 116 g. The supernatant (PRP) is transferred into plastic tubes. Platelet poor plasma (PPP) is obtained by centrifuging the residual blood cells at 4000 g for ten minutes. PRP is left to stand at least one half hour prior to testing.
Platelet Aggregation is measured using a Payton Aggregometer and Recorder. Following calibration of the instrument, a cuvette containing PRP (225 microliters) is incubated for three minutes at 37°C. Drug vehicle (control), or a drug concentration is then added in a volume of 0.5 microliter. After one minute, the aggregating agent (U44069, 9,11-dideoxy-9a,11a-epoxymethano PGF2a) is added to the cuvette in a volume of 25 microliters. Recording is continued until the maximal response is obtained.
The threshold (approximately 20 - 30% of maximum) aggregation concentration of the agonist to be used is first determined in the presence of the drug vehicle (control). Test compounds are then assayed at 10 or 30 micrograms/ml initially, and if active, are further tested in order to determine the concentration range at which 20-80% of the threshold aggregatory response is inhibited. All drugs are dissolved in dimethylsulfoxide.
The height of the aggregation response (measured in divisions of the recorder paper, 1 division = 2.5 mm) in the presence of the drug is recorded, and calculated as percent inhibition of the mean height of the control threshold responses. The IC₅₀ (drug concentration which inhibits 50% of the aggregatory response) is obtained by regression analysis.

Where [3] appears, read: relative to compound 2 (so in the source).

Converted amounts (≈) assume the structure as drawn.

As for `O=C(O)CC1CCCCc2c1c1cc(F)ccc1n2Cc1ccc(Cl)cc1` (stereo not shown) [Compound 2, 2-Fluoro-5-(p-chlorobenzyl)-5,6,7,8,9,10-hexahydrocyclo hept[b]indole-10-acetic acid], the Kb in test [1] was 42.7 nM. The IC50 in test [2] came out at 4.5 µg/mL (≈ 11.7 µM).

For the molecule `COc1ccc2c(c1)c1c(n2Cc2ccc(Cl)cc2)CC(CC(=O)O)CC1` (stereo not shown) [Compound A, reference compound], in test [1], the Kb is 158 nM. In test [1] (setting [3]), the “pA2 lower than that of compound 2” value is given as 1.7 log units and the “potency factor corresponding to the pA2 difference” value is given as 15. Also, in test [2], the IC50 worked out at 3.5 µg/mL (≈ 9.12 µM).

As for `COc1ccc2c(c1)c1c(n2Cc2ccc(Cl)cc2)CC(C(=O)O)CC1` (stereo not shown) [Compound B, reference compound], the Kb in test [1] is 158 nM. In test [2], the IC50 was greater than 30 µg/mL.

Regarding `O=C(O)CC1CCCCc2c1n(Cc1ccc(Cl)cc1)c1ccc(F)cc21` (stereo not shown) [Compound 4, 2-Fluoro-5-(p-chlorobenzyl)-5,6,7,8,9,10-hexahydrocyclohept[b]indole-6-acetic acid], the Kb in test [1] was 1.35 nM. Also, the IC50 in test [2] amounted to 0.015 µg/mL (≈ 0.0389 µM).

With `CS(=O)(=O)c1ccc(Cn2c3c(c4cc(F)cc(F)c42)CCCC(CC(=O)O)C3)cc1` (stereo not shown) [Compound 36, 2,4-Difluoro-5(p-methylsulfonylbenzyl)-5,6,7,8,9,10-hexahydrocyclohept[b]indole-7-acetic acid], the Kb in test [1] is 8.32 nM. The IC50 in test [2] worked out at 0.012 µg/mL (≈ 0.0268 µM).

`O=C(O)C1CCCc2c(n(Cc3ccc(Cl)cc3)c3ccc(F)cc23)C1` (stereo not shown) [Compound 3, 2-Fluoro-5-(p-chlorobenzyl)-5,6,7,8,9,10-hexahydrocyclo hept[b]indole-7-carboxylic acid]: the Kb in test [1] is 129 nM. For the same molecule, the IC50 in test [2] is 7.46 µg/mL (≈ 20.1 µM).

With `O=C(O)CC1CCCc2c(n(Cc3ccc(Cl)cc3)c3ccc(F)cc23)C1` (stereo not shown) [Compound 1, 2-Fluoro-5-(p-chlorobenzyl)-5,6,7,8,9,10-hexahydrocyclo hept[b]indole-7-acetic acid], in test [1], the Kb was 3.16 nM. Moreover, the IC50 in test [2] is 0.05 µg/mL (≈ 0.13 µM).
